Target: T1, 5-lipoxygenase (Cavia porcellus, UniProt A0A286X958)
T1 construct: incubating 0.2 ml of the supernatant obtained from the PMNL sonicate with the test compound; from tissue; host or cells: casein-elicited guinea pig peritoneal polymorphonuclear leukocytes (PMNL, more than 95 percent of the cells), sonicated, 30,000 x g supernatant
T1 sequence (A0A286X958 1-674): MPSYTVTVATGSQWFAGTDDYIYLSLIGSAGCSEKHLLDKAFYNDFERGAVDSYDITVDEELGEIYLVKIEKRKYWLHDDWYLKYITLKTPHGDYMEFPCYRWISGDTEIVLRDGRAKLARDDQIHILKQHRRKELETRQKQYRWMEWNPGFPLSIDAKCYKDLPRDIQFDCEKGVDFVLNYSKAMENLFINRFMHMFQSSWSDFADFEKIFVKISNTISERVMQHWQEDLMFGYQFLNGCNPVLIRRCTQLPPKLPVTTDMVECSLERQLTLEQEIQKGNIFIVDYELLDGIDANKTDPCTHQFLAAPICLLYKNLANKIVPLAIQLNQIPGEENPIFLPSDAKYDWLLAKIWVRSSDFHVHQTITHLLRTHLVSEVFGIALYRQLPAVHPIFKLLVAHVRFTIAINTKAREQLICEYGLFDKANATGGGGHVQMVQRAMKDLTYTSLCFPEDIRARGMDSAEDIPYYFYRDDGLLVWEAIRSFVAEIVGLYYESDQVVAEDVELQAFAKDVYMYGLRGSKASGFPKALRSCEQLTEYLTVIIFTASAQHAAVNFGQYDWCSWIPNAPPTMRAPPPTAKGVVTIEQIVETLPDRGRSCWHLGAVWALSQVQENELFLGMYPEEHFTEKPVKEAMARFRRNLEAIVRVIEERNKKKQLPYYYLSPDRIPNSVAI
Assay: 5-Lipoxygenase (5-LPO) Assay, inhibition of 5-HETE formation in PMNL sonicate supernatant
Type: biochemical, guinea pig
Details: for IC50: guinea pig PMNL sonicate supernatant, 37° C., 5 μM 14C-arachidonic acid
Method: 5-Lipoxygenase (5-LPO) Assay
Ten milliliters of a 2% casein solution were injected intraperitoneally into guinea pigs weighing 250-300 gm. After 16-18 hours, the guinea pigs were killed by suffocation in a carbon dioxide chamber. The peritoneal cavity was infused with 70 ml of saline and 40-50 ml of the fluid were recovered from the cavity. After centrifugation, cell pellets were washed twice in Hank's balanced salt solution (HBSS) without calcium ion.
The cells were then suspended in 5 ml of sodium phosphate buffer, pH 7.1 containing 1 mM EDTA, and 0.1% gelatin. About 20-30×10^7 cells were obtained from one guinea pig.
The PMNL suspension was disrupted by five 1/2 second pulse sonications at the setting of 3 in a Branson Sonifier, Model 350, equipped with a microtip. The sonicates were combined and centrifuged at 30,000× g for 10 minutes. The supernatant was kept frozen at -70° C. until use.
Enzyme activity was determined by assaying for 5-HETE formation by first incubating 0.2 ml of the supernatant obtained from the PMNL sonicate with the test compound, 1 mM CaCl2, 2 mM ATP, and 1 mM GSH for 5 minutes at 37° C. The mixture is treated with 5 μM ^14 C-arachidonicacid and incubated at 37° C. an additional 10 minutes. The enzyme reaction was then stopped by the addition of 10 μl of 1M citric acid and 10μl of an alcohol solution containing 20 mg/ml each of indomethacin and butylated hydroxyanisole (BHA). The reaction mixture was spotted (50 μl on a silica gel plate (Baker TLC plate S1250-PA-19C) and subjected to TLC in a solvent system of ethyl acetate/2,2,4-trimethylpentane/glacial acetic acid/water (90:50:20:100).
The radioactivity of the arachidonic acid and its metabolites (5-HETE and LTB4) was visualized from a developed x-ray film which had been exposed to the TLC plate 1-2 days. The amount of 5-HETE formed was quantitated by scraping the silica gel area corresponding to the spot on the x-ray film, and the radioactivity determined in a Isocap/300 liquid scintillation counter (Searle Analytic, Inc.).
The percent inhibition of the formation of 5-HETE was determined for each concentration of test compound tested as compared to a control experiment wherein no test compound was added. The concentration and percent inhibition values were plotted on semi log paper and the concentration in which formation of 5-HETE is inhibited by 50% (IC50) was determined by interpolation.

CCCc1c(O)ccc(C(=O)c2ccccc2O)c1O [Example 4, (2,4-Dihydroxy-3-propylphenyl)(2hydroxyphenyl)methanone]
IC50: 5880 nM

COc1ccccc1C(=O)c1ccc(OC)c(C)c1O [Example 9, (2-hydroxy-4-methoxy-3-methylphenyl)(2-methoxyphenyl)methanone]
IC50: 3670 nM

CCCc1c(OCCCCC#N)ccc(C(=O)c2ccccc2O)c1O [Example 11, 5-[3-Hydroxy-4-(2-hydroxybenzoyl)-2-propylphenoxy]pentanenitrile]
IC50: 2830 nM

CCCc1c(OCCCCc2nnn[nH]2)ccc(C(=O)c2ccccc2OC)c1O [Example 23, (2-Hydroxy-3-propyl-4-[4-(1H-tetrazol-5-yl)butoxy]phenyl)(2-methoxyphenyl)methanone]
IC50: 1710 nM

CCCc1c(OCCCCCCc2nnn[nH]2)ccc(C(=O)c2ccccc2O)c1O [Example 25, (2-Hydroxyphenyl)[2-hydroxy-3-propyl-4-([6-(1H-tetrazol-5-yl)hexyl]oxy)phenyl]methanone]
IC50: 11800 nM

CCCc1c(OCCCCc2nnn[nH]2)ccc(C(=O)c2ccccc2O)c1O [Example 26, (2-Hydroxyphenyl)(2-hydroxy-3-propyl-4[4-(1H-tetrazol-5-yl)butoxy]phenyl)methanone]
IC50: 1260 nM

CCCc1c(OCCCCCCCCc2nnn[nH]2)ccc(C(=O)c2ccccc2O)c1O [Example 28, (2-Hydroxyphenyl)[2-hydroxy-3-propyl-4-([8-(1H-tetrazol-5-yl)octyl]oxy)phenyl]methanone]
IC50: 1330 nM

CCCc1c(OCCCCC(=O)O)ccc(C(=O)c2ccccc2O)c1O [Example 30, 5-[3-Hydroxy-4-(2-hydroxybenzoyl)-2-propylphenoxy]pentanoic acid]
inhibition at 10 µg/mL (percent inhibition at 10 μg/ml): 37%

Reference: patent US4801616A, “Diphenylmethanone compounds and anti-inflammatory use thereof” (Eli Lilly and Company, priority 1986, dated 1989)
